Experimental data reported in patent US7323461B2, “Use of methylene blue and related compounds to prevent or reverse an exaggerated hemodynamic reaction” (Montreal Heart Institute, priority 2002, dated 2008).
“Also recorded” adds a separate entry of the source.

Assays:
[1] = Hemodynamic effects of methylene blue on hypotensive pigs (LCX artery occluded, sildenafil citrate plus nitroglycerin); assay type: in vivo, pig; conditions: LCX balloon occlusion, 100 mg sildenafil citrate via esophagus tube, 0.2 mg nitroglycerin i.v. bolus along with MB bolus 3 mg/kg
Procedure: (§1) Pigs weighing between 20 and 25 kg were anesthetized in accordance with the standard procedure of the Canadian Council on Animal Care Regulations. After baseline hemodynamic measurements, the left circumflex (LCX) artery was occluded using a catheter balloon so as to mimic the condition of patients with cardiovascular disease. As soon as the animal was stable, a bolus injection of nitroglycerin (0.2 mg) was given intravenously in order to observe the effect of nitroglycerin alone on the animal. The animal's blood pressure was allowed to return to normal, and the animal was given 100 mg of sildenafil citrate via an esophagus tube. One hour after the administration of sildenafil citrate, a bolus injection of 0.2 mg of nitroglycerin was given to the animal in order to observe the combined effect of […] and nitroglycerin on the animal. When the animal's blood pressure returned to normal, a second 0.2 mg bolus injection of nitroglycerin was given along with a bolus of MB (3 mg/kg). Blood pressure and heart rate were monitored throughout the procedure.

[2] = Hemodynamic effects of methylene blue on hypotensive dogs (same procedure as for pigs); assay type: in vivo, dog; conditions: same procedure as pigs: sildenafil citrate, nitroglycerin bolus
Procedure: as §1
The procedure used was the same as that for pigs. (See EXAMPLE 1, above.) The experiments were conducted on dogs to see what effect the combination of a phosphodiesterase inhibitor and an organic nitrate would have on an animal with a greater number of collaterals than the pig. […]

[3] = humans, dosages above 2 mg/kg; cited from earlier work

CN(C)c1ccc2nc3ccc(N(C)C)cc3[s+]c2c1.[Cl-] [MB, 3,7-bis(dimethylamino)phenothiazin-5-ium chloride]
changes in time in systolic blood pressure after nitroglycerin injection with MB [1]: Pressure recovery was much more rapid in the presence of MB; also recorded: beneficial effects of MB may be seen; also recorded: effectiveness of MB in increasing the blood pressure | changes in time in systolic blood pressure after nitroglycerin injection with MB [2]: A drop in blood pressure is less pronounced, and there is more rapid recovery time, than without MB; also recorded: MB effectively increased the blood pressure in the animals tested | respiratory problems at high dosage [3]: can lead to respiratory problems in humans
